For data set [1], the system named is ventricular muscle refractory period. Briefly: Influence on ventricular muscle refractory period (ERP). As to conditions: Canis lupus familiaris, iv, i.v., (W-Y)/Y×100, read-out: ERP (%; extensibility of refractory period). The format is in vivo, mongrel dog. How it is done:
(2) Influence on ventricular muscle refractory period Refractory periods were measured in the following manner before and after each of the compounds and d-sotalol shown in Table 2 was separately administered to a vein or a duodenum, and ERP (%; extensibility of refractory period) was calculated from the measured values: ERP (%)=(W-Y)/Y×100 W: Refractory period after administration Y: Refractory period before administration To a mongrel adult dog, 30 mg/kg of pentobarbital was administered intravenously, and after being anesthetized, a pair of silver-silver chloride electrodes separated by 3 mm was sewn on an opened right ventricule, and electrical stimulation was given at an interval of 400 msec at a duration time of 4 msec under a current twice as much as the threshold. Afterward, a small amount of alcohol was injected into a sinus artery in order to extinguish a pacemaker activity, and the ventricular refractory period (ERP) was measured under ventricule pacing. That is, each 1 train comprised 10 stimulations having intervals of 400 msec, and an interval between the trains was usually 400 msec. However, this interval was shortened 10 msec by 10 msec at the time of the refractory period measurement, and an interval between the trains at the time when reaction to the first stimulation of the train disappeared was regarded as the refractory period. In this case, the electrical stimulation was fed in accordance with a program by a heart stimulation device (Diamedical Co., Ltd.; DHM-226-3).

The subject of data set [2] is Purkinje fiber of the right ventricular free wall (myocardial action potential). Briefly: Influence on myocardial action potential duration time (APD75), isolated right ventricular free wall, microelectrode in Purkinje fiber. The data set is classed as cell-based, dog. Conditions: Canis lupus familiaris, 20 min, 20 minutes' incubation, (B-A)/A×100, read-out: APD75 (%); for activation at 1 µg/mL: 1.0 μg/ml; for activation at 3 µg/mL: 3.0 μg/ml; for activation at 10 µg/mL: 10.0 μg/ml.

Data set [3] is described as follows: Toxicity test, mortality rate 24 hours after administration. Conditions: mouse, in vivo. The protocol: Each of the compounds prepared in the above-mentioned examples was administered into a mouse (ddY strain, male). In each case, oral administration (p.o.) and intra peritoneal administration (i.p.) were separately carried out in a dose of 300 mg/kg and 250 mg/kg, respectively.
A mortality rate (number of specimens: one group=2 to 4 mice) of the mice 24 hours after the administration was calculated, and the results are set forth in Table 3.
Following the same procedure as in Toxicity Test 1, toxicity of the respective compounds prepared in the above examples in Table 5 was tested to calculate a mortality rate of mice.
Administration was made by oral administration (p.o.) in an amount of 300 mg/kg of each compound for one mouse.
Following the same procedure as in Toxicity Test 1, toxicity of the respective compounds prepared in the above examples in Table 7 was tested to calculate a mortality rate of mice.

Each structure is given as a SMILES string. Where a name gives a salt, the structure may show the parent alone.

On to `CSc1ccc(OCCCN2CCN(c3cc(=O)n(C)c(=O)n3C)CC2)c([N+](=O)[O-])c1` [Compound 147, 1,3-dimethyl-6-{4-[3-(4-methylthio-2-nitrophenyloxy)propyl]piperazin-1-yl}-2,4(1H,3H)-pyrimidinedione hydrochloride], for which, in data set [1], the change in vivo at 0.1 mg/kg amounted to 0%, the change in vivo at 0.3 mg/kg was 0% and the change in vivo at 1 mg/kg was found to be 0%. In data set [2], the activation at 1 µg/mL came out at 14% and the activation at 3 µg/mL was found to be 18%. For the same molecule, the mortality (as a rule, the share of the test organisms that died) at 24 h in data set [3] (po, 300 mg/kg (p.o.)) is 0%.
`Cn1c(N2CCN(CCCOc3cc([N+](=O)[O-])ccc3O)CC2)cc(=O)n(C)c1=O` [Compound 145, 1,3-dimethyl-6-{4-[3-(2-hydroxy-5-nitrophenyloxy)propyl]piperazin-1-yl}-2,4(1H,3H)-pyrimidinedione hydrochloride]: in data set [1], the change in vivo at 0.1 mg/kg worked out at 0%, the change in vivo at 0.3 mg/kg was found to be 6.7%, the change in vivo at 1 mg/kg stood at 6.7% and the change in vivo at 3 mg/kg was determined as 20%. Moreover, in data set [2], the activation at 1 µg/mL stood at 7%, the activation at 3 µg/mL was 16% and the activation at 10 µg/mL came to 23%. Moreover, the mortality at 24 h in data set [3] (po, 300 mg/kg (p.o.)) was determined as 0%.
Regarding `CCN(CCCCc1ccc([N+](=O)[O-])cc1)CCNc1cc(=O)n(C)c(=O)n1C` [Compound 22], the mortality at 24 h was 50% in data set [3] (ip, 250 mg/kg (i.p.)) and 0% in data set [3] (po, 300 mg/kg (p.o.)).
In turn, `Cn1c(N2CCN(c3ccc([N+](=O)[O-])cc3C(=O)c3ccccc3)CC2)cc(=O)n(C)c1=O` [Compound 128, 1,3-dimethyl-6-{4-(2-benzoyl-4-nitrophenyl)piperazin-1-yl}-2,4(1H,3H)-pyrimidinedione oxalate] registered a mortality at 24 h in data set [3] (po, 300 mg/kg (p.o.)) of 0%.
The same measure, in the same setting: to `Cn1c(N2CCN(CCNC(=O)c3ccc([N+](=O)[O-])cc3)CC2)cc(=O)n(C)c1=O` [Compound 45, 1,3-dimethyl-6-{4-[2-(4-nitrobenzoylamino)ethyl]piperazin-1-yl}-2,4(1H,3H)-pyrimidinedione hydrochloride] belongs 0%; to `Cn1c(N2CCN(CCCOc3ccc([N+](=O)[O-])cc3C(O)c3ccccc3)CC2)cc(=O)n(C)c1=O` (stereo not drawn) [Compound 148, 1,3-dimethyl-6-{4-<3-[2-(α-hydroxybenzyl)-4-nitrophenyloxy]propyl>piperazin-1-yl}-2,4(1H,3H)-pyrimidinedione oxalate], 0%.
In data set [3] (po, 300 mg/kg (p.o.)), `Cn1c(NCCNc2ccc([N+](=O)[O-])cc2C(=O)c2ccccc2)cc(=O)n(C)c1=O` [Compound 131, 1,3-dimethyl-6-[2-(2-benzoyl-4-nitroanilino)ethylamino]-2,4(1H,3H)-pyrimidinedione oxalate] displayed a mortality at 24 h of 0%.
For `Cn1c(N2CCN(CCc3ccc([N+](=O)[O-])cc3C(=O)c3ccccc3)CC2)cc(=O)n(C)c1=O` [Compound 133, 1,3-dimethyl-6-(4-[2-(2-benzoyl-4-nitrophenyl)ethyl]piperazin-1-yl)-2,4(1H,3H)-pyrimidinedione oxalate], in data set [1], the change in vivo at 0.1 mg/kg worked out at 6.3%, the change in vivo at 0.3 mg/kg stood at 6.3% and the change in vivo at 1 mg/kg came out at 18.8%. In data set [3] (po, 300 mg/kg (p.o.)), this molecule yielded a mortality at 24 h of 0%.
In data set [3] (po, 300 mg/kg (p.o.)), `Cn1c(N2CCN(CCCOc3c(Cl)cc([N+](=O)[O-])cc3Cl)CC2)cc(=O)n(C)c1=O` [Compound 165, 1,3-dimethyl-6-{4-[3-(2,6-dichloro-4-nitrophenyloxy)propyl]piperazin-1-yl}-2,4(1H,3H)-pyrimidinedione hydrochloride] registered a mortality at 24 h of 0%.
On the same count and under the same terms, to `CC(=O)c1ccc(OCCCN2CCN(c3cc(=O)n(C)c(=O)n3C)CC2)c([N+](=O)[O-])c1` [Compound 77, 1,3-dimethyl-6-{4-[3-(4-acetyl-2-nitrophenoxy)propyl]piperazin-1-yl}-2,4(1H,3H)-pyrimidinedione oxalate] belongs 0%.
In the case of `Cn1c(NCCNC(=O)c2ccc([N+](=O)[O-])cc2)cc(=O)n(C)c1=O` [Compound 56, 1,3-dimethyl-6-[2-(4-nitrobenzoylamino)ethylamino]-2,4(1H,3H)-pyrimidinedione], in data set [1], the change in vivo at 0.1 mg/kg was 6.7%, the change in vivo at 0.3 mg/kg worked out at 6.7% and the change in vivo at 1 mg/kg was determined as 6.7%. In addition, the mortality at 24 h in data set [3] (po, 300 mg/kg (p.o.)) stood at 50%.
`CCOC(=O)CN(CCCc1ccc([N+](=O)[O-])cc1)CCNc1cc(=O)n(C)c(=O)n1C` [Compound 175, 1,3-dimethyl-6-{2-[N-ethoxycarbonylmethyl-3-(4-nitrophenyl)propylamino]ethylamino}-2,4(1H,3H)-pyrimidinedione oxalate]: in data set [2], the activation at 1 µg/mL amounted to 8% and the activation at 3 µg/mL came to 16%. In data set [3] (po, 300 mg/kg (p.o.)), this molecule returned a mortality at 24 h of 0%.
For `Cn1c(N2CCN(CCOc3ccc(C(=O)c4ccccc4)cc3[N+](=O)[O-])CC2)cc(=O)n(C)c1=O` [Compound 103], the mortality at 24 h in data set [3] (po, 300 mg/kg (p.o.)) was found to be 0%.
On to `Cn1c(N2CCN(CCOc3ccc([N+](=O)[O-])cc3C(=O)c3ccc(Br)cc3)CC2)cc(=O)n(C)c1=O` [Compound 100], for which the mortality at 24 h in data set [3] (po, 300 mg/kg (p.o.)) turned out to be 0%.
In the case of `Cn1c(N2CCN(CCCCOc3ccc([N+](=O)[O-])cc3)CC2)cc(=O)n(C)c1=O` [Compound 54, 1,3-dimethyl-6-{4-[4-(4-nitrophenoxy)butyl]piperazin-1-yl}-2,4(1H,3H)-pyrimidinedione hydrochloride], in data set [2], the activation at 3 µg/mL is 15% and the activation at 10 µg/mL was determined as 26%. This molecule also had a mortality at 24 h in data set [3] (po, 300 mg/kg (p.o.)) of 0%.
In the case of `Cn1c(NCCN(CCO)CCCCc2ccc([N+](=O)[O-])cc2)cc(=O)n(C)c1=O` [Compound 23], in data set [2], the activation at 1 µg/mL amounted to 18%, the activation at 3 µg/mL is 35% and the activation at 10 µg/mL amounted to 39%. Moreover, the mortality at 24 h in data set [3] (po, 300 mg/kg (p.o.)) was 0%.
Consider `COC(=O)c1ccc(OCCCN2CCN(c3cc(=O)n(C)c(=O)n3C)CC2)c([N+](=O)[O-])c1` [Compound 154, 1,3-dimethyl-6-{4-[3-(4-methoxycarbonyl-2-nitrophenyloxy)propyl]piperazin-1-yl}-2,4(1H,3H)-pyrimidinedione oxalate], for which, in data set [1], the change in vivo at 0.1 mg/kg amounted to 0%, the change in vivo at 0.3 mg/kg was found to be 0%, the change in vivo at 1 mg/kg worked out at 5.9% and the change in vivo at 3 mg/kg was determined as 11.8%. For the same molecule, in data set [2], the activation at 1 µg/mL stood at 9%, the activation at 3 µg/mL worked out at 12% and the activation at 10 µg/mL came to 20%.
Turning to `Cn1c(N2CCN(Cc3ccc([N+](=O)[O-])cc3C(=O)c3ccccc3)CC2)cc(=O)n(C)c1=O` [Compound 134, 1,3-dimethyl-6-{4-[(2-benzoyl-4-nitrophenyl)methyl]piperazin-1-yl}-2,4(1H,3)-pyrimidinedione oxalate], in data set [3] (po, 300 mg/kg (p.o.)), the mortality at 24 h worked out at 0%.
Regarding `CN(CCCN1CCN(c2cc(=O)n(C)c(=O)n2C)CC1)c1ccc([N+](=O)[O-])cc1` [Compound 69, 1,3-dimethyl-6-{4-[3-(N-methyl-4-nitroanilino)propyl]piperazin-1-yl}-2,4(1H,3H)-pyrimidinedione oxalate], in data set [1], the change in vivo at 0.1 mg/kg turned out to be 6.7%, the change in vivo at 0.3 mg/kg amounted to 6.7%, the change in vivo at 1 mg/kg was 13.3% and the change in vivo at 3 mg/kg is 20%. For the same molecule, in data set [2], the activation at 3 µg/mL amounted to 11% and the activation at 10 µg/mL stood at 13%.
`Cn1c(N2CCN(CCCOc3ccc([N+](=O)[O-])cc3N)CC2)cc(=O)n(C)c1=O` [Compound 153, 1,3-dimethyl-6-{4-[3-(2-amino-4-nitrophenyloxy)propyl]piperazin-1-yl}-2,4(1H,3H)-pyrimidinedione oxalate]: in data set [1], the change in vivo at 0.1 mg/kg amounted to 6.1%, the change in vivo at 0.3 mg/kg turned out to be 9.1% and the change in vivo at 1 mg/kg was 18.3%. Besides, in data set [2], the activation at 1 µg/mL stood at 20% and the activation at 3 µg/mL was 25%.

(Values after patent US5008267A, “Pyrimidinedione compounds, method of producing the same and antiarrythmic agents containing the same” (Mitsui Toatsu Chemicals, Incorporated, priority 1988, dated 1991).)
